Assays:
human SGLT1 = molecular target: T1, human SGLT1 (Homo sapiens, UniProt P13866); test: Methyl-α-D-[U-14C]glucopyranoside uptake assay in COS-7 cells expressing human SGLT1; assay type: cell-based; conditions: 2 h incubation
T1 construct: Full-length human SGLT1 cDNA on pDream2.1 expression vector; host or cells: COS-7 cells (American Type Culture Collection)
T1 sequence (P13866 1-664): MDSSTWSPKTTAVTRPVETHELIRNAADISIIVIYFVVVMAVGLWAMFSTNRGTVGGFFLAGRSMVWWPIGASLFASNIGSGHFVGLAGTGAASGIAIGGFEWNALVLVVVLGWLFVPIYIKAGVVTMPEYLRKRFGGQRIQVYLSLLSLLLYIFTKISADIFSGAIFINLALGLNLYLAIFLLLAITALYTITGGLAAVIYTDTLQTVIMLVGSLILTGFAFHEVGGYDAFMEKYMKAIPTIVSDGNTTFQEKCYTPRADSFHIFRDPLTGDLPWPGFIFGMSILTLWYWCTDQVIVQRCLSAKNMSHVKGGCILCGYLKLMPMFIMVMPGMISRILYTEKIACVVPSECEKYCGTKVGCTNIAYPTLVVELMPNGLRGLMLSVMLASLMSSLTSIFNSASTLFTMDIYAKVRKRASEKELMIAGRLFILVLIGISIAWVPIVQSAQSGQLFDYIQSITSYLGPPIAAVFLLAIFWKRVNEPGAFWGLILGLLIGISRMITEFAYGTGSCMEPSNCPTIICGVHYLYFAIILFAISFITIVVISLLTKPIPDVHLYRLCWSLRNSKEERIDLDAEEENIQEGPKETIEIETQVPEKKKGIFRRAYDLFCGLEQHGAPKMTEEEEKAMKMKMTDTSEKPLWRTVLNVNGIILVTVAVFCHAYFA
Protocol: Full-length human SGLT1 cDNA on pDream2.1 expression vector was obtained from GenScript Corporation and propagated in Escherichia coli strain DH5α using Luria-Bertani (LB) medium containing ampicillin. Plasmid DNA was isolated using the QIAGEN Plasmid Midi Kit (QIAGEN Inc.). […] Transfected cells were stored in DMEM containing 10% dimethyl sulfoxide (DMSO) at −80° C.
(§1) Cells expressing SGLT1 or SGLT2 were seeded on 96-well ScintiPlate scintillating plates (PerkinElmer, Inc.) in DMEM containing 10% FBS (1×10^5 cells per well in 100 μl medium) incubated at 37° C. under 5% CO2 for 48 h prior to the assay. Cells were washed twice with 150 μl of either sodium buffer (137 mM NaCl, 5.4 mM KCl, 2.8 mM CaCl2, 1.2 mM MgCl2, 10 mM tris(hydroxymethyl)aminomethane/N^2-hydroxyethylpiperazine-N′-ethanesulfonic acid [Tris/Hepes], pH 7.2) or sodium-free buffer (137 mM N-methyl-glucamine, 5.4 mM KCl, 2.8 mM CaCl2, 1.2 mM MgCl2, 10 mM Tris/Hepes, pH 7.2). Test compound in 50 μl each of sodium or sodium-free buffer containing 40 μCi/ml methyl-α-D-[U-^14C]glucopyranoside (Amersham Biosciences/GE Healthcare), either with (symbols in parentheses) or without (symbols without parentheses) 25% human serum, was added per well of a 96-well plate and incubated at 37° C. with shaking for either 2 h (SGLT1 assay) or 1.5 h (SGLT2 assay). Cells were washed twice with 150 μl of wash buffer (137 mM N-methylglucamine, 10 mM Tris/Hepes, pH 7.2) and methyl-α-D-[U-^14C]glucopyranoside uptake was quantitated using a TopCount scintillation counter (PerkinElmer, Inc.). Sodium-dependent glucopyranoside uptake was measured by subtracting the values obtained with sodium-free buffer from those obtained using sodium buffer (average of triplicate determinations).

human SGLT2 = molecular target: T2, human SGLT2 (Homo sapiens, UniProt P31639); test: Methyl-α-D-[U-14C]glucopyranoside uptake assay in HEK293.ETN cells stably expressing human SGLT2; assay type: cell-based; conditions: 1.5 h incubation
T2 construct: A full-length cDNA clone expressing human SGLT2
T2 sequence (P31639 1-672): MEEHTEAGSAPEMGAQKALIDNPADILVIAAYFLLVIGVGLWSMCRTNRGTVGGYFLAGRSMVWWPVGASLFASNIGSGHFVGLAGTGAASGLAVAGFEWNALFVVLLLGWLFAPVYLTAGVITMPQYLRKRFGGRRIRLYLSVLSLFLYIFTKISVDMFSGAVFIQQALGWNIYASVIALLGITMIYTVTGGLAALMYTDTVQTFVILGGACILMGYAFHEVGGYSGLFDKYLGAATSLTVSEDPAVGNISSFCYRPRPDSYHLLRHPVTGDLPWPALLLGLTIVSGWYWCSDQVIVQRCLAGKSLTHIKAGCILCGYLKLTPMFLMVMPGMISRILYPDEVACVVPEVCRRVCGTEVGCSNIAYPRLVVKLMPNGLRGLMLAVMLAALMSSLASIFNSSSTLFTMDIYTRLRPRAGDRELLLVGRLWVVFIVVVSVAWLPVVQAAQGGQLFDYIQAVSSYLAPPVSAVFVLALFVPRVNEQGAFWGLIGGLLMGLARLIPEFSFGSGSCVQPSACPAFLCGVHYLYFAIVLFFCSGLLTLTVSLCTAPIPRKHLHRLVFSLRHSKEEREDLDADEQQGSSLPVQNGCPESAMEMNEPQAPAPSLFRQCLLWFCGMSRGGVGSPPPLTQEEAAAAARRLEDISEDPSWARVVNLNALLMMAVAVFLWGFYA
Description: A full-length cDNA clone expressing human SGLT2 (GenScript Corporation) was subcloned into Hind III and Not I sites of pEAK15 expression vector. Clones harboring the cDNA inserts were identified by restriction analysis.
Plasmid containing human SGLT2 was linearized with Nsi I and purified by agarose gel electrophoresis. Using Lipofectamine 2000 Transfection Reagent (Invitrogen Corporation), DNA was transfected into HEK293.ETN cells and cultured in Dulbecco's Modified Eagle Medium (DMEM) containing 10% fetal bovine serum (FBS) at 37° C. under 5% CO2 for 24 h. Transfectants were selected in the same growth medium supplemented with puromycin (Invitrogen Corporation) for two weeks. Puromycin-resistant cells were recovered and seeded on a fresh 96-well plate (single cell per well) and cultured in the presence of puromycin until cells became confluent. Puromycin-resistant clones were evaluated for SGLT2 activity in the methyl-α-D-[U-^14C]glucopyranoside uptake assay described below.
as §1

[1] = incubation with 25% human serum (symbols in parentheses)
[2] = without human serum (symbols without parentheses)

Compound | IC50 (human SGLT1; [1]) | IC50 (human SGLT2; [1]) | IC50 (human SGLT1; [2]) | IC50 (human SGLT2; [2])
OC[C@H]1O[C@@H](c2ccc(Cl)c(Cc3ccc(OCCOC4CCCC4)cc3)c2)[C@H](O)[C@@H](O)[C@@H]1O [Compound AD, (2S,3R,4R,5S,6R)-2-(4-chloro-3-(4-(2-(cyclopentyloxy)ethoxy)benzyl)phenyl)-6-(hydroxymethyl)tetrahydro-2H-pyran-3,4,5-triol] | 1000 to 10000 nM | < 1000 nM | – | –
OC[C@H]1O[C@@H](c2ccc(Cl)c(Cc3ccc(OCC#CC4CC4)cc3)c2)[C@H](O)[C@@H](O)[C@@H]1O [Compound AV, (2S,3R,4R,5S,6R)-2-(4-chloro-3-(4-(3-cyclopropylprop-2-ynyloxy)benzyl)phenyl)-6-(hydroxymethyl)tetrahydro-2H-pyran-3,4,5-triol] | > 10000 nM | < 1000 nM | – | –
OC[C@H]1O[C@@H](c2ccc(Cl)c(Cc3ccc(CCOC(F)F)cc3)c2)[C@H](O)[C@@H](O)[C@@H]1O [Compound BN, (2S,3R,4R,5S,6R)-2-(4-chloro-3-(4-(2-(difluoromethoxy)ethyl)benzyl)phenyl)-6-(hydroxymethyl)tetrahydro-2H-pyran-3,4,5-triol] | > 10000 nM | < 1000 nM | – | –
OC[C@H]1O[C@@H](c2ccc(Cl)c(Cc3ccc(OCCOC4CC4)cc3)c2)[C@H](O)[C@@H](O)[C@@H]1O [Compound BQ, (2S,3R,4R,5S,6R)-2-(4-chloro-3-(4-(2-cyclopropoxyethoxy)benzyl)phenyl)-6-(hydroxymethyl)tetrahydro-2H-pyran-3,4,5-triol] | 1000 to 10000 nM | < 1000 nM | – | –
OC[C@H]1O[C@@H](c2ccc(Cl)c(Cc3ccc(OCCOCC(F)(F)F)cc3)c2)[C@H](O)[C@@H](O)[C@@H]1O [Compound BT, (2S,3R,4R,5S,6R)-2-(4-chloro-3-(4-(2-(2,2,2-trifluoroethoxy)ethoxy)benzyl)phenyl)-6-(hydroxymethyl)tetrahydro-2H-pyran-3,4,5-triol] | 1000 to 10000 nM | < 1000 nM | – | –
OC[C@H]1O[C@@H](c2ccc(Cl)c(Cc3ccc(OCCOC4C=CCCC4)cc3)c2)[C@H](O)[C@@H](O)[C@@H]1O (stereo partly drawn) [Compound BW, (2S,3R,4R,5S,6R)-2-(4-chloro-3-(4-(2-(cyclohex-2-enyloxy)ethoxy)benzyl)phenyl)-6-(hydroxymethyl)tetrahydro-2H-pyran-3,4,5-triol] | > 10000 nM | < 1000 nM | – | –
OC[C@H]1O[C@@H](c2ccc(Cl)c(Cc3ccc(OC/C=C/C4CC4)cc3)c2)[C@H](O)[C@@H](O)[C@@H]1O [Compound BZ, (2S,3R,4R,5S,6R)-2-(4-chloro-3-(4-((E)-3-cyclopropylallyloxy)benzyl)phenyl)-6-(hydroxymethyl)tetrahydro-2H-pyran-3,4,5-triol] | > 10000 nM | < 1000 nM | – | –
OC[C@H]1O[C@@H](c2ccc(Cl)c(Cc3ccc(OCCOCCF)cc3)c2)[C@H](O)[C@@H](O)[C@@H]1O [Compound CC, (2S,3R,4R,5S,6R)-2-(4-chloro-3-(4-(2-(2-fluoroethoxy)ethoxy)benzyl)phenyl)-6-(hydroxymethyl)tetrahydro-2H-pyran-3,4,5-triol] | – | – | 1000 to 10000 nM | < 1000 nM
OC[C@H]1O[C@@H](c2ccc(Cl)c(Cc3ccc(OCCOCC(F)F)cc3)c2)[C@H](O)[C@@H](O)[C@@H]1O [Compound CF, (2S,3R,4R,5S,6R)-2-(4-chloro-3-(4-(2-(2,2-difluoroethoxy)ethoxy)benzyl)phenyl)-6-(hydroxymethyl)tetrahydro-2H-pyran-3,4,5-triol] | – | – | 1000 to 10000 nM | < 1000 nM
OC[C@H]1O[C@@H](c2ccc(Cl)c(Cc3ccc(OCCOCCN4CCCC4)cc3)c2)[C@H](O)[C@@H](O)[C@@H]1O [Compound CH, (2S,3R,4R,5S,6R)-2-(4-chloro-3-(4-(2-(2-(pyrrolidin-1-yl)ethoxy)ethoxy)benzyl)phenyl)-6-(hydroxymethyl)tetrahydro-2H-pyran-3,4,5-triol] | 1000 to 10000 nM | < 1000 nM | – | –
OC[C@H]1O[C@@H](c2ccc(Cl)c(Cc3ccc(OCCO[C@H]4CCOC4)cc3)c2)[C@H](O)[C@@H](O)[C@@H]1O [Compound CK, (2S,3R,4R,5S,6R)-2-(4-chloro-3-(4-(2-((S)-tetrahydrofuran-3-yloxy)ethoxy)benzyl)phenyl)-6-(hydroxymethyl)tetrahydro-2H-pyran-3,4,5-triol] | 1000 to 10000 nM | < 1000 nM | – | –
OC[C@H]1O[C@@H](c2ccc(Cl)c(Cc3ccc(OCCOC4CCC4)cc3)c2)[C@H](O)[C@@H](O)[C@@H]1O [Compound CM, (2S,3R,4R,5S,6R)-2-(4-chloro-3-(4-(2-cyclobutoxyethoxy)benzyl)phenyl)-6-(hydroxymethyl)tetrahydro-2H-pyran-3,4,5-triol] | > 10000 nM | < 1000 nM | – | –
CC1(OCCOc2ccc(Cc3cc([C@@H]4O[C@H](CO)[C@@H](O)[C@H](O)[C@H]4O)ccc3Cl)cc2)CC1 [Compound CP, (2S,3R,4R,5S,6R)-2-(4-chloro-3-(4-(2-(1-methylcyclopropoxy)ethoxy)benzyl)phenyl)-6-(hydroxymethyl)tetrahydro-2H-pyran-3,4,5-triol] | > 10000 nM | < 1000 nM | – | –
OC[C@H]1O[C@@H](c2ccc(Cl)c(Cc3ccc(CCOC4CC4)cc3)c2)[C@H](O)[C@@H](O)[C@@H]1O [Compound CT, (2S,3R,4R,5S,6R)-2-(4-chloro-3-(4-(2-cyclopropoxyethyl)benzyl)phenyl)-6-(hydroxymethyl)tetrahydro-2H-pyran-3,4,5-triol] | > 10000 nM | < 1000 nM | – | –
OC[C@H]1O[C@@H](c2ccc(Cl)c(Cc3ccc(COC4CC4)cc3)c2)[C@H](O)[C@@H](O)[C@@H]1O [Compound CX, (2S,3R,4R,5S,6R)-2-(4-chloro-3-(4-(cyclopropoxymethyl)benzyl)phenyl)-6-(hydroxymethyl)tetrahydro-2H-pyran-3,4,5-triol] | > 10000 nM | < 1000 nM | – | –
CC(COc1ccc(Cc2cc([C@@H]3O[C@H](CO)[C@@H](O)[C@H](O)[C@H]3O)ccc2Cl)cc1)OC1CC1 (stereo partly drawn) [Compound DC, (2S,3R,4R,5S,6R)-2-(4-chloro-3-(4-(2-cyclopropoxypropoxy)benzyl)phenyl)-6-(hydroxymethyl)tetrahydro-2H-pyran-3,4,5-triol] | 1000 to 10000 nM | < 1000 nM | – | –
